Measurements from patent US20020160988A1 (priority 2001, published 2002).
Where two headings read alike, the source gives them in different places.

Legend:
[1] = target: T1, recombinant human acetylcholineesterase (rHuAChE) (Homo sapiens, UniProt P22303); conditions: for t½(ks): human, recombinant enzyme
[2] = in vivo; conditions: mouse
[3] = target: T1, recombinant human acetylcholineesterase (rHuAChE); experiment: biochemical
[4] = system: mice; conditions: mouse, in vivo
[5] = system: carrageenan-induced rat paw edema; conditions: in vivo
[6] = system: CAR-induced brain edema; set-up: species or system rats; conditions: rat, in vivo
[7] = target: T2, fetal bovine serum-AChE (FBS-AChE) (Bos taurus, UniProt P23795); conditions: for t½(ks): bovine, serum
T2 sequence (P23795 31-613): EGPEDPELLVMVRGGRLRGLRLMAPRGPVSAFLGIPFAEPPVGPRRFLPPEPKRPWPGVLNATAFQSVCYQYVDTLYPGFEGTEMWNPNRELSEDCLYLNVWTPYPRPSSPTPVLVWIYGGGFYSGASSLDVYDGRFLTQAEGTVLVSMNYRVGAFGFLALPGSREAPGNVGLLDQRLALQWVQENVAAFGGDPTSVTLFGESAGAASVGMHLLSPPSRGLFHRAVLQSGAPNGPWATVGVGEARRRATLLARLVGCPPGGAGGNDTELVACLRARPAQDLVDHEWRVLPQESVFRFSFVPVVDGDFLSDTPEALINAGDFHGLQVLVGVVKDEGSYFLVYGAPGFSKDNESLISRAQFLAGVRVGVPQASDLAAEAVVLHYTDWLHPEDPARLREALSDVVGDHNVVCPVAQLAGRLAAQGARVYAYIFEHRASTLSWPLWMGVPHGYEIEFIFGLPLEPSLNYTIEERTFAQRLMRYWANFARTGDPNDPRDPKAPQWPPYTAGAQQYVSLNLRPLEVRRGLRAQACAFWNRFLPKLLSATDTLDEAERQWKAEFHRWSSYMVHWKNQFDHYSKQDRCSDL

[8] = target: T3, human plasma butyrylcholinesterase (HuBChE) (Homo sapiens, UniProt P06276); conditions: for t½(ks): human, plasma
[9] = physchem; conditions: pH 7.4
[10] = target: T2, fetal bovine serum-AChE (FBS-AChE); experiment: biochemical
[11] = target: T3, human plasma butyrylcholinesterase (HuBChE); experiment: biochemical
[12] = target: COX I (bovine seminal vesicles) (Bos taurus, UniProt O62664); experiment: biochemical; conditions: read-out: % Inhibition COX I
[13] = target: COX II (sheep placenta) (Ovis aries, UniProt P79208); experiment: biochemical; conditions: read-out: % Inhibition COX II
[14] = system: whole blood ChE; set-up: species or system mice; conditions: mouse, in vivo, 0.13 mg/kg
[15] = system: mice; conditions: mouse, in vivo; remark: listed apart in the source

T3 sequence (P06276 29-602): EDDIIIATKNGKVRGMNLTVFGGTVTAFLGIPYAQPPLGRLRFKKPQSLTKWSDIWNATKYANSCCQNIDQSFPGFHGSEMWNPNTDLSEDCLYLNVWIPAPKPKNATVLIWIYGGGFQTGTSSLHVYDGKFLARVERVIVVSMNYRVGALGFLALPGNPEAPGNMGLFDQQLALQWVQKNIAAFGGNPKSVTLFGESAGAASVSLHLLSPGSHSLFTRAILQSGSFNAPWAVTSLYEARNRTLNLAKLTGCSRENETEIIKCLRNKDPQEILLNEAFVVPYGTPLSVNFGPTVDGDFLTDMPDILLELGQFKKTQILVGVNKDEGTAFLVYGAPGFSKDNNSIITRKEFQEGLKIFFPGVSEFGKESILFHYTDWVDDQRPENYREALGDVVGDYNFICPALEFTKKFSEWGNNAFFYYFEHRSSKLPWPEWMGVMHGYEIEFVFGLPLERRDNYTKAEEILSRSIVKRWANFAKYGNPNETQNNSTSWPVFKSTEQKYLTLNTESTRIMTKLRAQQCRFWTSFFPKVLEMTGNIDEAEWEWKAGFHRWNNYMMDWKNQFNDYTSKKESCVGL
T1 sequence (P22303 32-614): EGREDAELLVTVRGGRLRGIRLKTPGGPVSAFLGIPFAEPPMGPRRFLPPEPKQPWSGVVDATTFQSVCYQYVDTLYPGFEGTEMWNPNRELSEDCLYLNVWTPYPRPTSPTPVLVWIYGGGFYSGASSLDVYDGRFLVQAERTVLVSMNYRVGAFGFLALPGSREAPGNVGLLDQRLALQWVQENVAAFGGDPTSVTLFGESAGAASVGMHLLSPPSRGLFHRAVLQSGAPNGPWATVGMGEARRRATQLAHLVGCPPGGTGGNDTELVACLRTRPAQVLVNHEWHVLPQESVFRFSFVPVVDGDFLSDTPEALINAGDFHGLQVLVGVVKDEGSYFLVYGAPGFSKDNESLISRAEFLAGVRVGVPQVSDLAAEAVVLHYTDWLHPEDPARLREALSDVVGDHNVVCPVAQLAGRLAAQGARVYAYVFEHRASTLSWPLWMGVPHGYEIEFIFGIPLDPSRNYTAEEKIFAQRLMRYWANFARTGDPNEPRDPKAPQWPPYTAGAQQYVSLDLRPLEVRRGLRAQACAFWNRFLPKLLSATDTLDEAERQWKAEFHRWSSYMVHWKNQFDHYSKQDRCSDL
COX II (sheep placenta), sequence (P79208 17-603): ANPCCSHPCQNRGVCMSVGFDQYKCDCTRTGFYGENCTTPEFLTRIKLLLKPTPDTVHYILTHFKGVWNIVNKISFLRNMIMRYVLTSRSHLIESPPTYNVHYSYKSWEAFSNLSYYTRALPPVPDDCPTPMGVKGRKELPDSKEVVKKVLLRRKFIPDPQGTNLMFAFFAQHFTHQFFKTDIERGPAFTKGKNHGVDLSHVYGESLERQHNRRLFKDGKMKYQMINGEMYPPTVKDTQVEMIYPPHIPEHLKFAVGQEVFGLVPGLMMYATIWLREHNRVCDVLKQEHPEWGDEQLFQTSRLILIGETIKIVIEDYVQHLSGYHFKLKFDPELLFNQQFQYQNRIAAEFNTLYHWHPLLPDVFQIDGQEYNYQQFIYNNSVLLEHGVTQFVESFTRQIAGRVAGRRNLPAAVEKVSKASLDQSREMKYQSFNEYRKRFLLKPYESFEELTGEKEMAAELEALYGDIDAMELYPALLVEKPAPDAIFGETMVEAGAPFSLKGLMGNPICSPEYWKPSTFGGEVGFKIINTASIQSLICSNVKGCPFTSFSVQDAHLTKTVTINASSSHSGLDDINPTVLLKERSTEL
COX I (bovine seminal vesicles), sequence (O62664 25-600): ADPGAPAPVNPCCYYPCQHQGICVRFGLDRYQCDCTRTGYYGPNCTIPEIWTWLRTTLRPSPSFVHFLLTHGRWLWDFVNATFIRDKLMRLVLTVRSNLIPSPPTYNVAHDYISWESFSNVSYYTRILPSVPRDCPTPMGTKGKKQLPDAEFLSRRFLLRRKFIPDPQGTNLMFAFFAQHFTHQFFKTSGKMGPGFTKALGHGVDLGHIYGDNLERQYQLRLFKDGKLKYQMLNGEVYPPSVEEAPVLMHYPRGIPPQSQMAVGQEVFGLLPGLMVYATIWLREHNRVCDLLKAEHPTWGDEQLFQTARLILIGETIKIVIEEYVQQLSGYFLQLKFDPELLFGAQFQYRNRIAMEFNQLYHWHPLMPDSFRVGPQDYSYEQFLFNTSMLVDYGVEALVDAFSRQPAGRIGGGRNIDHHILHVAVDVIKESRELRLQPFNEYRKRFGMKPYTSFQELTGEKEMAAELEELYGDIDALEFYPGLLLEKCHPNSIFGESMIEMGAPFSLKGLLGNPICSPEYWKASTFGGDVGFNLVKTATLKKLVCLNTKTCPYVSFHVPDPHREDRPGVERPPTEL

3-Dimethylcarbamoyl-1-{7-[2-(4-isobutyl-phenyl)-propionylamino]-heptyl}-pyridinium bromide [IBU-Am-PH]
Ki [1]: 0.047 µM
K′ [1]: 0.13 min⁻¹
ki (bimolecular rate constant) [1]: 2.8 × 10^6 M^−1m^−1
ks × 10^3 [1]: 27 minutes^−1

CC(=O)Oc1ccccc1C(=O)O [ASPIRIN, aspirin]
LD50 ([2]; ip): > 100 mg/kg

COC(=O)C1=CCCN(C)C1 [Arecoline, arecoline]
mode of AChE inhibition [1]: reversible inhibition of AChE
IC50 [3]: > 100 µM

CCN(C)C(=O)Oc1cccc([C@H](C)N(C)C)c1 [EXELON]
Therapeutic Index (TI = LD50/ED50) [4]: 12.5

CC(C)Cc1ccc(C(C)C(=O)O)cc1 (stereo not shown) [IBU, ibuprofen]
edema level (% EDEMA) after treatment [5]: about 30%
brain % water content [6]: 83%
LD50 ([2]; im): > 100 mg/kg

CC(C)Cc1ccc(C(C)C(=O)OCCCCCCCCN2CCC=C(OC(=O)N(C)C)C2)cc1 (stereo not shown) [IBU-4H-PO]
K′ [7]: 1.9 min⁻¹
ki (bimolecular rate constant) [7]: 2.8 × 10^4 M^−1m^−1
ks × 10^3 [7]: 20 minutes^−1
t½(ks) [7]: 0.575 h
K′ [1]: 0.23 min⁻¹
ki (bimolecular rate constant) [1]: 1.9 × 10^4 M^−1m^−1
ks × 10^3 [1]: 6.9 minutes^−1
t½(ks) [1]: 1.67 h
K′ [8]: 0.19 min⁻¹
ki (bimolecular rate constant) [8]: 1.2 × 10^5 M^−1m^−1
ks × 10^3 [8]: 0.9 minutes^−1
t½(ks) [8]: 13.2 h
LD50 ([2]; ip): 54.2 mg/kg
logD [9]: 2
Ki [10]: 66 µM
Ki [3]: 12 µM
Ki [11]: 1.6 µM

COc1ccc2c(c1)c(CC(=O)O)c(C)n2C(=O)c1ccc(Cl)cc1 [INDO, indomethacin]
edema level (% EDEMA) after treatment [5]: about 30%
LD50 ([2]; ip): 12.4 mg/kg

COC(=O)c1cccnc1 [MN, methyl nicotinate]
mode of AChE inhibition [1]: reversible inhibition of AChE
IC50 [3]: > 100 µM

COc1ccc2cc([C@H](C)C(=O)O)ccc2c1 [NAPRO, naproxen]
inhibition at 1 µM [12]: 37%
inhibition at 1 µM [13]: 85%

CN(C)C(=O)Oc1ccc[n+](C)c1 [PYR, pyridostigmine]
ChE inhibition [14]: less than 20%
duration time of ChE inhibition [14]: 1 to 1.5 h
K′ [7]: 0.31 min⁻¹
ki (bimolecular rate constant) [7]: 2.5 × 10^5 M^−1m^−1
ks × 10^3 [7]: 10 minutes^−1
t½(ks) [7]: 1.15 h
K′ [1]: 0.40 min⁻¹
ki (bimolecular rate constant) [1]: 2.7 × 10^5 M^−1m^−1
ks × 10^3 [1]: 9.2 minutes^−1
t½(ks) [1]: 1.25 h
K′ [8]: 0.08 min⁻¹
ki (bimolecular rate constant) [8]: 7.3 × 10^4 M^−1m^−1
ks × 10^3 [8]: 7.1 minutes^−1
t½(ks) [8]: 1.62 h
LD50 ([2]; im): 2.1 mg/kg
LD50 ([2]; ip): 5.1 mg/kg
Ki [10]: 1.2 µM

Nc1c2c(nc3ccccc13)CCCC2 [TACRINE]
Therapeutic Index (TI = LD50/ED50) [4]: 3.5

CN1[C@@H]2CC[C@H]1C[C@@H](OC(=O)C(CO)c1ccccc1)C2 (stereo partly shown) [atropine]
effect of pretreatment on IBU-PO-induced hypothermia [15]: partially reverses the hypothermia

CNC1(C)C2CCC(C2)C1(C)C (stereo not shown) [mecamylamine]
time of maximal IBU-PO-induced hypothermia after pretreatment [15]: 60 min

CNC(=O)Oc1ccc2c(c1)[C@]1(C)CCN(C)[C@@H]1N2C [physostigmine]
Therapeutic Index (TI = LD50/ED50) [4]: 3.4
